The CheMixHub viscosity set

Assay: xn = mol fraction of the nth substance listed

CCCCCCCCCCCC + CC(C)O
viscosity [mPa·s], 101.32 kPa
Conditions	293.15 K	298.15 K	303.15 K
x2 = 0.0422	1.446	1.325	1.219
x2 = 0.0957	1.424	1.306	1.191
x2 = 0.2215	1.397	1.276	1.177
x2 = 0.3267	1.396	1.27	1.164
x2 = 0.3943	1.407	1.28	1.167
x2 = 0.4959	1.421	1.28	1.16
x2 = 0.5981	1.48	1.324	1.192
x2 = 0.6957	1.566	1.392	1.243
x2 = 0.8012	1.714	1.503	1.33
x2 = 0.9005	1.92	1.674	1.467
x2 = 0.9502	2.101	1.815	1.58

NC(N)=O + CC(C)O
viscosity [mPa·s], 101 kPa
Conditions	293.15 K	298.15 K	303.15 K	308.15 K	313.15 K	318.15 K	323.15 K
x1 = 0.02132	2.552	2.196	1.899	1.65	1.44	1.262	1.111
x1 = 0.02695	2.58	2.22	1.92	1.669	1.457	1.277	1.124
x1 = 0.03401	2.6	2.243	1.944	1.693	1.481	1.301	1.147

OCCOCCOCCO + CC(C)O
viscosity [mPa·s], 100 kPa
Conditions	x1 = 0.081	x1 = 0.1598	x1 = 0.2401	x1 = 0.3501	x1 = 0.44	x1 = 0.5601	x1 = 0.6501	x1 = 0.74	x1 = 0.8498	x1 = 0.9398
293.15 K	4.61	6.73	9.06	12.51	15.58	20.36	24.67	29.58	36.45	43.07
298.15 K	3.54	5.11	6.84	9.44	11.82	15.58	18.9	22.75	28.15	33.34
303.15 K	3.21	4.58	5.98	8.15	10.07	13.01	15.62	18.54	22.62	26.49
308.15 K	2.65	3.73	4.95	6.7	8.26	10.68	12.73	15.05	18.28	21.38
313.15 K	2.22	3.12	4.05	5.45	6.71	8.67	10.32	12.22	14.86	17.32
318.15 K	1.97	2.79	3.63	4.83	5.88	7.5	8.82	10.32	12.42	14.36
323.15 K	1.8	2.54	3.32	4.44	5.39	6.74	7.86	9.07	10.68	12.14
